Consider 30 compounds from US20240400555A1 (Initial Therapeutics, Inc., priority 2023, published 2024).

Each structure is given as a SMILES string. Where only a bound is given, the exact number is not on record here.

The first assay relates to MV-4-11 cells. Briefly: Cell Viability Assay in MV-4-11 Cells. Conditions: Homo sapiens, MV4-11, 72 h, MV-4-11 cells, 72 h, Cell-Titer Glo; read-out: IC50. Type of assay: cell-based. The method in brief:
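MV-4-11 cells at 7,000/well in IMDM with 10% FBS, exposed to compound for 72 h. Viability by CellTiter-Glo luminescence, normalized to DMSO as 100%, fitted with a four-parameter curve.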
One may read the IC50 as the concentration that gives 50% inhibition. On to `Cc1cccc2ccnc(N(C(=O)c3ccc(Nc4nccc(CN5CCNCC5)n4)cc3F)[C@@H]3CCCNC3)c12` [Example 686, (R)-2-fluoro-N-(8-methylisoquinolin-1-yl)-4-((4-(piperazin-1-ylmethyl)pyrimidin-2-yl)amino)-N-(piperidin-3-yl)benzamide], for which the IC50 amounted to 460 nM.
Same read-out and setting: next, `Cc1csc2c(N(C(=O)c3ccc(-c4cn(C)nn4)cc3F)[C@@H]3CCCNC3)nccc12` [Example 677, (R)-2-fluoro-4-(1-methyl-1H-1,2,3-triazol-4-yl)-N-(3-methylthieno[2,3-c]pyridin-7-yl)-N-(piperidin-3-yl)benzamide]: 1400 nM.
Turning to `Cn1cc(-c2ccc(C(=O)N(c3nccc4sc(-c5cnccn5)cc34)[C@@H]3CCCNC3)c(F)c2)nn1` [Example 482], the IC50 stood at 870 nM.
Same read-out and setting: next, `Cn1ccc(-c2cc3c(N(C(=O)c4ccc(-n5nnc6cccnc65)cc4F)[C@@H]4CCCNC4)nccc3s2)n1` [Example 438, 2-fluoro-N-[2-(1-methylpyrazol-3-yl)thieno[3,2-c]pyridin-4-yl]-N-[(3R)-3-piperidyl]-4-(triazolo[4,5-b]pyridin-3-yl)benzamide]: 220 nM; `CN1CCN(c2ccnc(Nc3ccc(C(=O)N(c4nccc5cc(F)ccc45)[C@@H]4CCCNC4)c(F)c3)n2)CC1` [Example 562, (R)-2-fluoro-N-(6-fluoroisoquinolin-1-yl)-4-((4-(4-methylpiperazin-1-yl)pyrimidin-2-yl)amino)-N-(piperidin-3-yl)benzamide]: 340 nM; `Cc1cc(Cl)cc2ccnc(N(C(=O)c3ccc(Nc4ncccn4)cc3F)[C@@H]3CCCNC3)c12` [Example 793, N-(6-chloro-8-methyl-1-isoquinolyl)-2-fluoro-N-[(3R)-3-piperidyl]-4-(pyrimidin-2-ylamino)benzamide]: 200 nM.
Same read-out and setting: next, `Cc1noc(-c2ccc(C(=O)N(c3nccc4cc(F)cc(C)c34)[C@@H]3CCCNC3)cc2)n1` [Example 775, (R)—N-(6-fluoro-8-methylisoquinolin-1-yl)-4-(3-methyl-1,2,4-oxadiazol-5-yl)-N-(piperidin-3-yl)benzamide]: 99 nM; `Cc1nnc(-c2ccc(C(=O)N(c3nccc4c(Cl)ccc(C)c34)[C@@H]3CCCNC3)cc2)s1` [Example 856, N-(5-chloro-8-methyl-1-isoquinolyl)-4-(5-methyl-1,3,4-thiadiazol-2-yl)-N-[(3R)-3-piperidyl]benzamide]: 260 nM.
Still for that read-out and setting: next, `NC(=O)Cc1ccc(-c2cc3c(N(C(=O)c4ccc(-n5nnc6cccnc65)cc4F)[C@@H]4CCCNC4)nccc3s2)cc1` [Example 570, N-[2-[4-(2-amino-2-oxo-ethyl)phenyl]thieno[3,2-c]pyridin-4-yl]-2-fluoro-N-[(3R)-3-piperidyl]-4-(triazolo[4,5-b]pyridin-3-yl)benzamide]: 110 nM; `CCc1nnc(-c2ccc(C(=O)N(c3nccc4c(C)csc34)[C@@H]3CCCNC3)nc2)s1` [Example 669, 5-(5-ethyl-1,3,4-thiadiazol-2-yl)-N-(3-methylthieno[2,3-c]pyridin-7-yl)-N-[(3R)-3-piperidyl]pyridine-2-carboxamide]: 3200 nM; `NC(=O)c1ccc(-c2cc3c(N(C(=O)c4ccc(-c5cnn6c5CCCC6)cc4F)[C@@H]4CCCNC4)nccc3s2)cc1` [Example 825, N-[2-(4-carbamoylphenyl)thieno[3,2-c]pyridin-4-yl]-2-fluoro-N-[(3R)-3-piperidyl]-4-(4,5,6,7-tetrahydropyrazolo[1,5-a]pyridin-3-yl)benzamide]: 1000 nM.
As for `CC(O)c1cccc(-c2cc3c(N(C(=O)c4ccc(-n5nnc6cccnc65)cc4F)[C@@H]4CCCNC4)nccc3s2)c1` (stereo partly drawn) [Example 601, 4-(3H-[1,2,3]triazolo[4,5-b]pyridin-3-yl)-2-fluoro-N-(2-(3-(1-hydroxyethyl)phenyl)thieno[3,2-c]pyridin-4-yl)-N—((R)-piperidin-3-yl)benzamide], the IC50 came to 200 nM.
The same measure, in the same setting: next, `Cc1nsc(-c2ccc(C(=O)N(c3nccc4cc(F)cc(C)c34)[C@@H]3CCCNC3)cc2)n1` [Example 774, (R)—N-(6-fluoro-8-methylisoquinolin-1-yl)-4-(3-methyl-1,2,4-thiadiazol-5-yl)-N-(piperidin-3-yl)benzamide]: 1500 nM.
On the same count and under the same terms, next, `Cn1cc(-c2ccc(C(=O)N(c3nccc4sc(-c5ccnc(N)c5)cc34)[C@@H]3CCCNC3)c(F)c2)nn1` [Example 478, (R)—N-(2-(2-aminopyridin-4-yl)thieno[3,2-c]pyridin-4-yl)-2-fluoro-4-(1-methyl-1H-1,2,3-triazol-4-yl)-N-(piperidin-3-yl)benzamide]: 340 nM.
On the same count and under the same terms, next, `O=C(c1ccc(Nc2nccc(N3CCOCC3)n2)cc1F)N(c1nccc2cc(F)ccc12)[C@@H]1CCCNC1` [Example 560, (R)-2-fluoro-N-(6-fluoroisoquinolin-1-yl)-4-((4-morpholinopyrimidin-2-yl)amino)-N-(piperidin-3-yl)benzamide]: 220 nM; `COc1cccc(-c2cc3c(N(C(=O)c4ccc(-n5nnc6cccnc65)cc4F)[C@@H]4CCCNC4)nccc3s2)c1` [Example 385, (R)-4-(3H-[1,2,3]triazolo[4,5-b]pyridin-3-yl)-2-fluoro-N-(2-(3-methoxyphenyl)thieno[3,2-c]pyridin-4-yl)-N-(piperidin-3-yl)benzamide]: 520 nM.
Consider `COc1ccc(F)c2c(N(C(=O)c3ccc(-c4cn(C)nn4)cc3)[C@@H]3CCCNC3)nccc12` [Example 873, N-(8-fluoro-5-methoxy-1-isoquinolyl)-4-(1-methyltriazol-4-yl)-N-[(3R)-3-piperidyl] benzamide], for which the concentration for half-maximal inhibition (IC50) was more than 5200 nM.
The same measure, in the same setting: next, `O=C(O)c1nc(-c2cc3c(N(C(=O)c4ccc(-n5nnc6cccnc65)cc4F)[C@@H]4CCCNC4)nccc3s2)cs1` [Example 502, 4-[4-[[2-fluoro-4-(triazolo[4,5-b]pyridin-3-yl)benzoyl]-[(3R)-3-piperidyl]amino]thieno[3,2-c]pyridin-2-yl]thiazole-2-carboxylic acid]: 2100 nM.
The same measure, in the same setting: next, `Cc1cccc2ccnc(N(C(=O)c3ccc(Nc4ncc(N)cn4)cc3F)[C@@H]3CCCNC3)c12` [Example 410, (R)-4-((5-aminopyrimidin-2-yl)amino)-2-fluoro-N-(8-methylisoquinolin-1-yl)-N-(piperidin-3-yl)benzamide]: 190 nM; `Nc1nccc(-c2cc3c(N(C(=O)c4ccc(-n5nnc6cccnc65)cc4F)[C@@H]4CCCNC4)nccc3s2)n1` [Example 457, N-[2-(2-aminopyrimidin-4-yl)thieno[3,2-c]pyridin-4-yl]-2-fluoro-N-[(3R)-3-piperidyl]-4-(triazolo[4,5-b]pyridin-3-yl)benzamide]: 290 nM; `NC(=O)c1ccc2c(N(C(=O)c3ccc(-n4nnc5cccnc54)cc3F)[C@@H]3CCCNC3)nccc2c1` [Example 453, (R)-1-(4-(3H-[1,2,3]triazolo[4,5-b]pyridin-3-yl)-2-fluoro-N-(piperidin-3-yl)benzamido)isoquinoline-6-carboxamide]: 200 nM.
On the same count and under the same terms, next, `Cc1cccc2ccnc(N(C(=O)c3ccc(-c4cn(C)nn4)cc3Cl)[C@@H]3CCCNC3)c12` [Example 822, (R)-2-chloro-4-(1-methyl-1H-1,2,3-triazol-4-yl)-N-(8-methylisoquinolin-1-yl)-N-(piperidin-3-yl)benzamide]: 390 nM.
Regarding `Cc1cccc2ccnc(N(C(=O)c3ccc(Nc4ncnc(N5CCCC5)n4)cc3F)[C@@H]3CCCNC3)c12` [Example 968, 2-fluoro-N-(8-methylisoquinolin-1-yl)-N-[(3R)-piperidin-3-yl]-4-{[4-(pyrrolidin-1-yl)-1,3,5-triazin-2-yl]amino}benzamide], the IC50 amounted to 40 nM.
Same read-out and setting: next, `Cc1cccc2ccnc(N(C(=O)c3ccc(Nc4nccc(N(C)CCO)n4)cc3F)[C@@H]3CCCNC3)c12` [Example 743, (R)-2-fluoro-4-((4-((2-hydroxyethyl)(methyl)amino)pyrimidin-2-yl)amino)-N-(8-methylisoquinolin-1-yl)-N-(piperidin-3-yl)benzamide]: 160 nM; `O=C(c1ccc(-n2nnc3cccnc32)cc1F)N(c1nccc2cc(-c3ccncc3)sc12)[C@@H]1CCCNC1` [Example 384, 2-fluoro-N-[(3R)-3-piperidyl]-N-[2-(4-pyridyl)thieno[2,3-c]pyridin-7-yl]-4-(triazolo[4,5-b]pyridin-3-yl)benzamide]: 110 nM.
On the same count and under the same terms, next, `Cn1cc(-c2ccc(C(=O)N(c3nccc4sc(/C=C\CO)cc34)[C@@H]3CCCNC3)c(F)c2)nn1` [Example 504, (R,Z)-2-fluoro-N-(2-(3-hydroxyprop-1-en-1-yl)thieno[3,2-c]pyridin-4-yl)-4-(1-methyl-1H-1,2,3-triazol-4-yl)-N-(piperidin-3-yl)benzamide]: 810 nM.
Turning to `[2H]C([2H])([2H])c1nnc(-c2ccc(C(=O)N(c3nccc4cccc(C)c34)[C@@H]3CCCNC3)c(F)c2)s1` [Example 899, 2-fluoro-N-(8-methyl-1-isoquinolyl)-N-[(3R)-3-piperidyl]-4-[5-(trideuteriomethyl)-1,3,4-thiadiazol-2-yl]benzamide], the concentration for half-maximal inhibition (IC50) turned out to be 150 nM.
The same measure, in the same setting: next, `Cc1cc(C)c2c(N(C(=O)c3ccc(-c4nc(C)no4)cc3)[C@@H]3CCCNC3)nccc2c1` [Example 915, N-(6,8-dimethyl-1-isoquinolyl)-4-(3-methyl-1,2,4-oxadiazol-5-yl)-N-[(3R)-3-piperidyl] benzamide]: 86 nM; `[2H]C([2H])([2H])c1nnc(-c2ccc(C(=O)N(c3nccc4cc(Cl)cc(C)c34)[C@@H]3CCCNC3)c(F)c2)s1` [Example 766, (R)—N-(6-chloro-8-methylisoquinolin-1-yl)-2-fluoro-4-(5-(methyl-d3)-1,3,4-thiadiazol-2-yl)-N-(piperidin-3-yl)benzamide]: 100 nM.

Still in this assay, the particulars now being: MV-4-11 cells, 72 h, Cell-Titer Glo; read-out: IC50.
In the case of `Cc1csc2ccnc(N(C(=O)c3ccc(Nc4ncccn4)cc3F)[C@@H]3CCCNC3)c12` [Example 931, (R)-2-fluoro-N-(3-methylthieno[3,2-c]pyridin-4-yl)-N-(piperidin-3-yl)-4-(pyrimidin-2-ylamino)benzamide], the concentration for half-maximal inhibition (IC50) amounted to 170 nM.
